Columns and labels:
Test in all cases: relative viability (nuclei count vs DMSO), 5 days (fraction); higher = more cells survive
[1] = test system: LCLC-103H
Outline: (§1)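 Cells from lung cancer lines were seeded into 1536-well plates and, one day later, dosed by pin tool. Treatments were either a single drug or a fixed dose of an anchor drug with five library-drug doses (not always all listed) in √10 steps. After 5 days, nuclei were stained in a one-step fixation (final 0.05% Triton X-100, 1% formaldehyde, 1 ug/ml Hoechst) and counted on 4× images, and relative viability is the treated-to-vehicle nuclei ratio, as the median of duplicate plates.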

[2] = test system: NCI-H661
Outline: as §1

[3] = test system: NCI-H1915
Outline: as §1

[4] = test system: NCI-H322M
Outline: as §1

[5] = test system: NCI-H460
Outline: as §1

[6] = test system: NCI-H1755
Outline: as §1

[7] = test system: NCI-H727
Outline: as §1

[8] = test system: PC-14
Outline: as §1

[9] = test system: NCI-H441
Outline: as §1

[10] = test system: NCI-H1651
Outline: as §1

[11] = test system: NCI-H1355
Outline: as §1

[12] = test system: SW 900
Outline: as §1

[13] = test system: RERF-LC-KJ
Outline: as §1

[14] = test system: NCI-H520
Outline: as §1

[15] = test system: NCI-H3122
Outline: as §1

[16] = test system: NCI-H2347
Outline: as §1

[17] = test system: LXF-289
Outline: as §1

[18] = test system: NCI-H1563
Outline: as §1

[19] = test system: NCI-H596
Outline: as §1

[20] = test system: SK-MES-1
Outline: as §1

**Q.** CCN(CC)CCCCNc1ncc2cc(-c3cc(OC)cc(OC)c3)c(NC(=O)NC(C)(C)C)nc2n1 + COc1cc2c(Oc3ccc(NC(=O)C4(C(=O)Nc5ccc(F)cc5)CC4)cc3F)ccnc2cc1OCCCN1CCOCC1 [Foretinib] (partner 0.25 µM) was tested. Which relative viability ([1]; first compound 0.01 µM) did it give?
**A.** 0.942

**Q.** What about the relative viability ([1]; first compound 0.03162 µM) of the same compound?
**A.** 0.866

**Q.** And the relative viability ([1]; first compound 0.1 µM)?
**A.** 0.858

**Q.** And the relative viability ([1]; first compound 0.3162 µM)?
**A.** 0.755

**Q.** What about the relative viability ([1]; first compound 1 µM) of the same compound?
**A.** 0.597

**Q.** And the relative viability ([2]; first compound 0.01 µM)?
**A.** 1.07

**Q.** And the relative viability ([2]; first compound 0.03162 µM)?
**A.** 1.04

**Q.** And the relative viability ([2]; first compound 0.1 µM)?
**A.** 1.03

**Q.** What about the relative viability ([2]; first compound 0.3162 µM) of the same compound?
**A.** 1.07

**Q.** And the relative viability ([2]; first compound 1 µM)?
**A.** 1.02

**Q.** And the relative viability ([3]; first compound 0.01 µM)?
**A.** 1.15

**Q.** And the relative viability ([3]; first compound 0.03162 µM)?
**A.** 1.24

**Q.** And the relative viability ([3]; first compound 0.1 µM)?
**A.** 1.13

**Q.** What about the relative viability ([3]; first compound 0.3162 µM) of the same compound?
**A.** 1.27

**Q.** And the relative viability ([3]; first compound 1 µM)?
**A.** 1.15

**Q.** And the relative viability ([4]; first compound 0.01 µM)?
**A.** 0.991

**Q.** And the relative viability ([4]; first compound 0.03162 µM)?
**A.** 0.946

**Q.** What about the relative viability ([4]; first compound 0.1 µM) of the same compound?
**A.** 1.08

**Q.** And the relative viability ([4]; first compound 0.3162 µM)?
**A.** 1.01

**Q.** And the relative viability ([4]; first compound 1 µM)?
**A.** 0.966

**Q.** And the relative viability ([5]; first compound 0.01 µM)?
**A.** 0.972

**Q.** What about the relative viability ([5]; first compound 0.03162 µM) of the same compound?
**A.** 1.13

**Q.** And the relative viability ([5]; first compound 0.1 µM)?
**A.** 1.03

**Q.** What about the relative viability ([5]; first compound 0.3162 µM) of the same compound?
**A.** 1.04

**Q.** What about the relative viability ([5]; first compound 1 µM) of the same compound?
**A.** 1.18

**Q.** And the relative viability ([6]; first compound 0.01 µM)?
**A.** 0.986

**Q.** What about the relative viability ([6]; first compound 0.03162 µM) of the same compound?
**A.** 0.92

**Q.** And the relative viability ([6]; first compound 0.1 µM)?
**A.** 0.969

**Q.** What about the relative viability ([6]; first compound 0.3162 µM) of the same compound?
**A.** 0.936

**Q.** And the relative viability ([6]; first compound 1 µM)?
**A.** 0.882

**Q.** What about the relative viability ([7]; first compound 0.01 µM) of the same compound?
**A.** 0.956

**Q.** What about the relative viability ([7]; first compound 0.03162 µM) of the same compound?
**A.** 0.834

**Q.** What about the relative viability ([7]; first compound 0.1 µM) of the same compound?
**A.** 0.919

**Q.** And the relative viability ([7]; first compound 0.3162 µM)?
**A.** 1.05

**Q.** And the relative viability ([7]; first compound 1 µM)?
**A.** 0.844

**Q.** What about the relative viability ([8]; first compound 0.01 µM) of the same compound?
**A.** 0.976

**Q.** What about the relative viability ([8]; first compound 0.03162 µM) of the same compound?
**A.** 0.976

**Q.** What about the relative viability ([8]; first compound 0.1 µM) of the same compound?
**A.** 1.08

**Q.** And the relative viability ([8]; first compound 0.3162 µM)?
**A.** 1.07

**Q.** And the relative viability ([8]; first compound 1 µM)?
**A.** 0.885

**Q.** What about the relative viability ([9]; first compound 0.01 µM) of the same compound?
**A.** 1.02

**Q.** And the relative viability ([9]; first compound 0.03162 µM)?
**A.** 1.19

**Q.** And the relative viability ([9]; first compound 0.1 µM)?
**A.** 1.04

**Q.** What about the relative viability ([9]; first compound 0.3162 µM) of the same compound?
**A.** 1.04

**Q.** And the relative viability ([9]; first compound 1 µM)?
**A.** 0.918

**Q.** And the relative viability ([10]; first compound 0.01 µM)?
**A.** 0.789

**Q.** And the relative viability ([10]; first compound 0.03162 µM)?
**A.** 0.949

**Q.** And the relative viability ([10]; first compound 0.1 µM)?
**A.** 0.82

**Q.** What about the relative viability ([10]; first compound 0.3162 µM) of the same compound?
**A.** 0.761

**Q.** What about the relative viability ([10]; first compound 1 µM) of the same compound?
**A.** 0.748

**Q.** And the relative viability ([11]; first compound 0.01 µM)?
**A.** 1.01

**Q.** And the relative viability ([11]; first compound 0.03162 µM)?
**A.** 0.967

**Q.** And the relative viability ([11]; first compound 0.1 µM)?
**A.** 1.01

**Q.** And the relative viability ([11]; first compound 0.3162 µM)?
**A.** 1.1

**Q.** What about the relative viability ([11]; first compound 1 µM) of the same compound?
**A.** 0.991

**Q.** What about the relative viability ([12]; first compound 0.01 µM) of the same compound?
**A.** 0.891

**Q.** And the relative viability ([12]; first compound 0.03162 µM)?
**A.** 0.733

**Q.** And the relative viability ([12]; first compound 0.3162 µM)?
**A.** 0.745

**Q.** And the relative viability ([12]; first compound 1 µM)?
**A.** 0.557

**Q.** What about the relative viability ([13]; first compound 0.01 µM) of the same compound?
**A.** 0.893

**Q.** What about the relative viability ([13]; first compound 0.03162 µM) of the same compound?
**A.** 0.901

**Q.** And the relative viability ([13]; first compound 0.1 µM)?
**A.** 0.871

**Q.** What about the relative viability ([13]; first compound 0.3162 µM) of the same compound?
**A.** 0.872

**Q.** And the relative viability ([13]; first compound 1 µM)?
**A.** 0.941

**Q.** What about the relative viability ([14]; first compound 0.01 µM) of the same compound?
**A.** 0.677

**Q.** And the relative viability ([14]; first compound 0.03162 µM)?
**A.** 0.834

**Q.** What about the relative viability ([14]; first compound 0.1 µM) of the same compound?
**A.** 1.15

**Q.** And the relative viability ([14]; first compound 0.3162 µM)?
**A.** 0.543

**Q.** What about the relative viability ([14]; first compound 1 µM) of the same compound?
**A.** 0.326

**Q.** And the relative viability ([15]; first compound 0.01 µM)?
**A.** 0.967

**Q.** What about the relative viability ([15]; first compound 0.03162 µM) of the same compound?
**A.** 0.927

**Q.** What about the relative viability ([15]; first compound 0.1 µM) of the same compound?
**A.** 1.08

**Q.** And the relative viability ([15]; first compound 0.3162 µM)?
**A.** 1.05

**Q.** And the relative viability ([15]; first compound 1 µM)?
**A.** 1.02

**Q.** What about the relative viability ([16]; first compound 0.01 µM) of the same compound?
**A.** 0.744

**Q.** And the relative viability ([16]; first compound 0.03162 µM)?
**A.** 0.85

**Q.** And the relative viability ([16]; first compound 0.1 µM)?
**A.** 1.4

**Q.** What about the relative viability ([16]; first compound 0.3162 µM) of the same compound?
**A.** 1.12

**Q.** And the relative viability ([16]; first compound 1 µM)?
**A.** 0.766

**Q.** What about the relative viability ([17]; first compound 0.01 µM) of the same compound?
**A.** 0.979

**Q.** What about the relative viability ([17]; first compound 0.03162 µM) of the same compound?
**A.** 0.989

**Q.** And the relative viability ([17]; first compound 0.1 µM)?
**A.** 1.02

**Q.** And the relative viability ([17]; first compound 0.3162 µM)?
**A.** 0.975

**Q.** And the relative viability ([17]; first compound 1 µM)?
**A.** 0.851

**Q.** What about the relative viability ([18]; first compound 0.01 µM) of the same compound?
**A.** 0.921

**Q.** And the relative viability ([18]; first compound 0.03162 µM)?
**A.** 0.896

**Q.** And the relative viability ([18]; first compound 0.1 µM)?
**A.** 1.03

**Q.** What about the relative viability ([18]; first compound 0.3162 µM) of the same compound?
**A.** 0.907

**Q.** And the relative viability ([18]; first compound 1 µM)?
**A.** 0.748

**Q.** And the relative viability ([19]; first compound 0.01 µM)?
**A.** 0.852

**Q.** And the relative viability ([19]; first compound 0.03162 µM)?
**A.** 0.919

**Q.** What about the relative viability ([19]; first compound 0.1 µM) of the same compound?
**A.** 0.943

**Q.** And the relative viability ([19]; first compound 0.3162 µM)?
**A.** 0.931

**Q.** What about the relative viability ([19]; first compound 1 µM) of the same compound?
**A.** 0.73

**Q.** And the relative viability ([20]; first compound 0.01 µM)?
**A.** 0.973

**Q.** What about the relative viability ([20]; first compound 0.03162 µM) of the same compound?
**A.** 1.17

**Q.** What about the relative viability ([20]; first compound 0.1 µM) of the same compound?
**A.** 0.88

**Q.** And the relative viability ([20]; first compound 0.3162 µM)?
**A.** 1.12

**Q.** And the relative viability ([20]; first compound 1 µM)?
**A.** 0.889

Reference: the supplement of paper PMC10307832
